In patent EP0206497B1, “Therapeutic nucleosides and their preparation” (priority 1985, dated 1986):
pEC50: −log10 of the molar value.

Legend:
Type in all cases: cell-based
friend leukaemia virus = assay: Retroviral activity against friend leukaemia virus; details: read-out: ED₅₀
Procedure: (§1) • a) Feline Leukaemia Virus Susceptible feline embryo lung fibroblasts (FLF-3) were seeded onto multiwell slides (10⁵ cells/ml, 0.05 ml/well) with Dulbecco-modified Eagle's essential medium (DME) and incubated at 37 °C overnight. Each of the 32 wells was then infected with 40-60 focus forming units (ffu) of feline leukaemia virus (FeLV) for one hour after which the medium was replaced with fresh DME with varying concentrations of 2,6-diaminopurine-9-β-D-2',3'-dideoxyribofuranoside per 4 wells. Concentrations were 0, 1.0, 10, 50, 100, 200 and 400 »M. After 3 days incubation at 37 °C, the cultures were assayed by the indirect fluorescent antigen test for the production of FeLV. […]. […] This protective effect was seen on both days 10 and 13 of the experiment. • c) Friend Leukaemia virus The compounds have been tested for retroviral activity against friend leukaemia virus with the following results.

[1] = Cytotoxic effect against D-98 cells; details: human, 10⁻⁴ M, % growth relative to the control
Procedure: (§2) The following compounds were tested for cytotoxic effect at 10⁻⁴ M against human D-98 and mouse L cells. Figures shown are % growth relative to the control.

[2] = Cytotoxic effect against L cells; details: mouse, 10⁻⁴ M, % growth relative to the control
Procedure: as §2

HIV = assay: Block of HIV infection / cytopathic effect in cloned T4 positive T helper lymphocytes (cell survival); details: after 10 days in culture (protective effect seen on days 10 and 13), up to 5000 virions/cell, untreated infected cells 8-fold decreased
Procedure: as §1

[3] = tested on: feline leukaemia virus (FeLV); assay: Feline leukaemia virus production in infected FLF-3 fibroblasts, indirect fluorescent antigen test; details: FLF-3 cells; for inhibition: 3 days incubation
Procedure: as §1

Structure (SMILES)	pEC50 (friend leukaemia virus)	activity at 100 µM [1]	activity at 100 µM [2]	viral cytopathic effects in infected T cells (HIV; 2 »M)	viral cytopathic effects in infected T cells (HIV; 10 »M)	inhibition ([3]; 0.1 »M)	inhibition ([3]; 10 »M)	inhibition ([3]; 50 »M)	production of FeLV ([3]; concentrations of 100 »M and above, 3 days incubation at 37°C)
Nc1nc2c(ncn2[C@H]2CC[C@@H](CO)O2)c(=O)[nH]1 [2',3'-dideoxyguanosine, reference compound]	4.59	87%	93%	–	–	–	–	–	–
Nc1nc(N)c2ncn([C@H]3CC[C@@H](CO)O3)c2n1 [2,6-Diaminopurine-9-β-D-2',3'-dideoxyribofuranoside]	4.65	97%	41%	no viral cytopathic effects were seen	no viral cytopathic effects were seen	31%	45%	60%	Complete absence of FeLV
Nc1ncc2ncn([C@H]3CC[C@@H](CO)O3)c2n1 [2-Aminopurine-9-β-D-2',3'-dideoxyribofuranoside]	–	97%	107%	–	–	–	–	–	–
